{"source": "patent US20070116782A1", "about": "“USE OF RARE EARTH COMPOUNDS FOR THE PREVENTION OF KIDNEY STONE DISEASE” (SHIRE INT[…] B.V., priority 2001, published 2007)", "key": {"[1]": {"method": "(§1) In order to assess removal of oxalate from a stock solution by lanthanum carbonate, an oxalate binding assay was developed. […] Further, the buffer conditions were designed to mimic the conditions present in the stomach and in the small intestine. Briefly, 50 mL of a stock sodium oxalate solution containing 8.5 g/L sodium chloride was adjusted to the desired pH using 5N HCl and the Mettler-Toledo DL58 autotitrator. Various combinations of oxalate and lanthanum carbonate concentrations were tested to determine which would maximize oxalate removal. Prior to the addition of the desired amount of lanthanum carbonate, a 2 mL sample was taken to act as a zero time point sample. The volume of buffer was made up to 50 mL again by adding 2 mL of stock oxalate buffer back to the pH adjusted buffer and the lanthanum carbonate was added. […] In addition, samples were assayed at 590 nm in a Falcon 96-well microplate using the Molecular Devices Spectramax 190 plate reader.\nIn order to maximize the accuracy of the results, the filtered samples were assayed at a 1/20 dilution.\nThe procedure described above was repeated at various pH's in the range of 3-7."}, "[2]": {"details": "0.1 M compound, 0.01 M oxalate, 0.1 M phosphate (10-fold excess)", "method": "In addition, samples were assayed at 590 nm in a Falcon 96-well microplate using the Molecular Devices Spectramax 190 plate reader."}, "[3]": {"details": "0.1 M compound; 0.1 M phosphate, 0.01 M oxalate; pH 3 gradually increased to pH 7", "source_text": "In order to simulate the passing of lanthanum oxalate through the digestive system, a final experiment was designed which would study both oxalate and phosphate removal as the pH changed from pH 3 (i.e. stomach pH) to pH 7 (i.e. approximate intestinal pH).\nRemoval of both oxalate and phosphate were monitored for ten minutes. […] Samples were taken at pH 4, 5, 6, and 7 in order to assess changes in the amount of oxalate and phosphate present in the solution."}, "[4]": {"experiment": "Oxalate binding assay of Example 1 with pH maintained with 1N NaOH (chlorides, acetates)", "details": "pH 7, pH maintained with 1N NaOH", "method": "as §1"}, "[5]": {"details": "pH 7, 0.1 M compound, 0.01 M sodium oxalate, 8.5 g/L sodium chloride"}}, "note": "Like-named read-outs stand apart in the source and are kept apart here.", "data": [{"smiles": "O=C([O-])[O-].O=C([O-])[O-].O=C([O-])[O-].[Ce+3].[Ce+3]", "note": "[cerium carbonate]", "values": [{"measurement": "oxalate binding", "setting": "[1]; pH 3 (compared with pH 7), 0.1 M compound", "result": "less effective"}, {"measurement": "oxalate binding compared with 0.1 M lanthanum carbonate", "setting": "[1]; pH 7, 0.1 M compound", "result": "as effective as 0.1 M lanthanum carbonate"}]}, {"smiles": "O.O.O.O.O.O=C([O-])[O-].O=C([O-])[O-].O=C([O-])[O-].[La+3].[La+3]", "note": "[lanthanum carbonate pentahydrate]", "values": [{"measurement": "oxalate binding", "setting": "[1]; [5]", "result": "can effectively bind oxalate"}, {"measurement": "competitive binding of oxalate vs phosphate", "setting": "[2]; pH 3.0", "result": "Preferential binding of phosphate"}, {"measurement": "competitive binding of oxalate vs phosphate", "setting": "[2]; pH 7.0", "result": "preferentially bind oxalate over phosphate"}]}, {"smiles": "O.O.O.O.O=C([O-])[O-].O=C([O-])[O-].O=C([O-])[O-].[La+3].[La+3]", "note": "[lanthanum carbonate tetrahydrate]", "values": [{"measurement": "oxalate binding", "setting": "[1]; [5]", "result": "can effectively bind oxalate"}, {"measurement": "oxalate binding at various pH", "setting": "[1]; pH range 3-7", "result": "can bind oxalate in this pH range (3-7) with preferential binding at pH 6-7"}]}, {"smiles": "O=C([O-])[O-].O=C([O-])[O-].O=C([O-])[O-].[La+3].[La+3]", "note": "[lanthanum carbonate]", "values": [{"measurement": "oxalate binding in the presence of excess phosphate during pH transition", "setting": "[3]", "result": "can successfully bind oxalate"}]}, {"smiles": "[Cl][La]([Cl])[Cl]", "note": "[lanthanum chloride]", "values": [{"measurement": "oxalate binding", "setting": "[4]", "result": "binds oxalate quite rapidly"}]}]}
